Laboratory results: patent publication US7501423B2, “Tubulin inhibitor and process for its preparation” (Wyeth, priority 2005, dated 2009)
Structures can show the parent of a compound that is named as a salt.

Test: hygroscopic character of the salt forms
Type: physicochemical
Settings: solid salt form; no method or figures given

Molecule	hygroscopicity (hygroscopic character of the salt)
6-chloro-5-{2,6-difluoro-4-[3-(methylamino)propoxy]phenyl}-2-pyrazin-2-yl-N-[(1S)-2,2,2-trifluoro-1-methylethyl]pyrimidin-4-amine hemifumarate	essentially avoids the disadvantage of the hygroscopic character
CNCCCOc1cc(F)c(-c2c(Cl)nc(-c3cnccn3)nc2N[C@@H](C)C(F)(F)F)c(F)c1 [hydrochloride, 6-chloro-5-{2,6-difluoro-4-[3-(methylamino)propoxy]phenyl}-2-pyrazin-2-yl-N-[(1S)-2,2,2-trifluoro-1-methylethyl]pyrimidin-4-amine]	very hygroscopic
